Holding throughout (experiment): NCI-60 cell line screen, 48 h
The subject of assay [1] is A549 NSCLC.
The subject of assay [2] is CAKI-1 renal.
The test system of assay [3] is HOP-92 NSCLC.
The subject of assay [4] is IGROV1 ovarian.
For assay [5], the system named is KM12 colon.
For assay [6], the system named is NCI-H23 lung.
For assay [7], the system named is OVCAR-3 ovarian.
Assay [8] relates to OVCAR-8 ovarian.
In assay [9] the test system is PC-3 prostate.
Assay [10] concerns RPMI-8226 leukemia.
Assay [11] relates to RXF 393 renal.
Assay [12] has as its system SF-295 CNS.
Assay [13] deals with SK-MEL-5 melanoma.
Assay [14] deals with SR leukemia.
Assay [15] relates to UACC-257 melanoma.

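Interpolation was linear, between the two tested concentrations surrounding the appropriate level; five concentrations were tested over 48 hours in 96-well plates. At the TGI there is no net growth.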

Turning to `COC(=O)CCCCC/C(=C\C(=O)C(Cl)(Cl)Cl)OC`, the TGI in [1] was above 100 µM; in assay [2], above 100 µM; in assay [3], 57.1 µM; in assay [4], 32.2 µM; in assay [5] it was 95 µM; in [6], above 100 µM. For the same compound, the TGI in [7] is 70.4 µM; in assay [8], 73.6 µM; in assay [9], 77.9 µM; in assay [10] it was 60.9 µM; in [11], 41.1 µM; in [12], above 100 µM. For the same compound, the TGI is above 100 µM in assay [13], 45.2 µM in assay [14] and 57.7 µM in assay [15].
Consider `CCC(=O)NCCc1c[nH]c2ccc(OC)cc12`, for which the TGI in assay [1], in assay [2], in [3], in assay [4], in assay [5] and in [6] was above 100 µM in each case. Moreover, the TGI in assay [7], in [8], in assay [9], in assay [10], in [11] and in [12] was above 100 µM in each case. Further, the TGI in [13], in [14] and in assay [15] was above 100 µM in each case.
Consider `C[N+]1(C)CN(c2ccccc2)C2(CCN(CCCC(=O)c3cccs3)CC2)C1=O`, for which the TGI in assay [1], in assay [2], in assay [3], in assay [4], in assay [5] and in assay [6] was above 100 µM each time. The TGI in [7], in assay [8], in [9], in assay [10], in [11] and in assay [12] was above 100 µM in each case. Besides, the TGI in assay [13] was 77.1 µM; in [14], above 100 µM; in [15], above 100 µM.
`Cc1ccc(S(=O)(=O)N/N=C2\C=C[C@]3(CC2)C(=O)N(C)c2ccccc23)cc1`: the TGI in assay [1], in [2], in [3], in [4], in assay [5] and in [6] was above 100 µM in each case. In addition, the TGI in [7], in assay [8], in [9], in [10], in assay [11] and in assay [12] was above 100 µM in each case. Further, the TGI in assay [13], in [14] and in assay [15] was above 100 µM in each case.
On to `O=C(/C=C/c1ccc(O)c(O)c1)OCCOC(=O)/C=C/c1ccc(O)c(O)c1`, for which the TGI in assay [1] was above 100 µM; in assay [2] it was above 100 µM; in assay [3], above 100 µM; in [4], above 100 µM; in assay [5], 41.8 µM; in [6], above 100 µM. Further, the TGI is 39 µM in assay [7]; above 100 µM in assay [8]; 86.5 µM in assay [9]; above 100 µM in [10]; 51.9 µM in [11]; 44.1 µM in [12]. The TGI came to 32.7 µM in [13], 58.9 µM in assay [14] and 44.5 µM in assay [15].
On to `Cc1cc2c(-c3ccccc3)cc(=O)[nH]c2cc1N`, for which the TGI in [1], in [2], in [3], in [4], in assay [5] and in assay [6] was above 100 µM each time. The TGI in [7], in assay [8], in assay [9], in assay [10], in assay [11] and in assay [12] was above 100 µM each time. Moreover, the TGI in assay [13], in assay [14] and in assay [15] was above 100 µM each time.
As for `Cc1[nH]c2ccccc2c1C=Nc1ccc(Oc2ccccc2)cc1`, the TGI in [1] stood at 32.3 µM; in assay [2], 30.4 µM; in assay [3] it was 31.2 µM; in assay [4] it was 28.3 µM; in assay [5] it was 31.4 µM; in assay [6], 32.1 µM. For the same compound, the TGI in [7] worked out at 27.6 µM; in assay [8] it was 43.4 µM; in assay [9], 26.9 µM; in [10], 35.4 µM; in assay [11] it was 31.7 µM; in assay [12], 29.1 µM. Moreover, the TGI amounted to 28.9 µM in [13], 51 µM in [14] and 31.8 µM in assay [15].
`Cn1c(=O)n(CC(Br)CBr)c(=O)n(CC(Br)CBr)c1=O` (centres undefined): the TGI in assay [1], in assay [2], in assay [3], in assay [4], in [5] and in [6] was above 100 µM throughout. The TGI in assay [7] is above 100 µM; in assay [8], above 100 µM; in assay [9], above 100 µM; in assay [10] it was 63.8 µM; in [11], above 100 µM; in assay [12], above 100 µM. Also, the figures for the TGI in assay [13], in assay [14] and in assay [15] were 32.9 µM, 37.4 µM and above 100 µM, respectively.
Turning to `NC(=O)N(O)c1cccc(Br)c1`, the TGI in [1], in [2], in assay [3], in assay [4], in assay [5] and in [6] was above 100 µM throughout. Moreover, the TGI in assay [7], in assay [8], in assay [9], in assay [10], in assay [11] and in assay [12] was above 100 µM each time. Besides, the TGI in [13], in [14] and in [15] was above 100 µM throughout.
For the compound `O=C1OC(CN2CCN(c3ccccc3)CC2)CN1C(=S)Nc1ccccc1` (centres undefined), the TGI in [1], in [2], in assay [3], in [4], in assay [5] and in assay [6] was above 100 µM throughout. Besides, the TGI in assay [7], in assay [8], in assay [9], in [10], in [11] and in assay [12] was above 100 µM in each case. The TGI in assay [13], in assay [14] and in assay [15] was above 100 µM each time.
For `Cc1nc2c(-c3ccccc3)[nH]c(C)c2c(=O)o1`, the TGI in [1], in assay [2], in [3], in assay [4], in [5] and in assay [6] was above 100 µM in each case. Also, the TGI in [8], in [9], in [10], in assay [11], in [12] and in assay [13] was above 100 µM in each case. For the same compound, the TGI in [14] and in [15] was above 100 µM each time.
As for `CSCCCCCCCCCCOc1ccc(C=C2C(=C(C#N)C#N)c3ccccc3C2=C(C#N)C#N)cc1`, the TGI in assay [2] was found to be 32.3 µM; in assay [3] it was 26.9 µM; in [4], 34.7 µM; in assay [5], 36.8 µM; in assay [6], 48.9 µM; in [7], 30 µM. For the same compound, the TGI in assay [8] was 39.6 µM; in assay [9], 31.4 µM; in [10], above 100 µM; in assay [11], 35.1 µM; in assay [12], 34 µM; in assay [13], 31.9 µM. The TGI turned out to be 52.6 µM in [14] and 35.4 µM in assay [15].
For the compound `CC(C)(C)C=C=C(C(C)(C)C)P(=O)(O)O`, the TGI in assay [1], in assay [2], in assay [3], in assay [4], in assay [5] and in [6] was above 100 µM throughout. For the same compound, the TGI in assay [7], in assay [8], in assay [9], in assay [10], in assay [11] and in assay [12] was above 100 µM each time. In addition, the TGI in [13], in [14] and in assay [15] was above 100 µM throughout.
In the case of `CC(Cc1ccc(O)c(O)c1)C(C)Cc1ccc(O)c(O)c1` (centres undefined), the TGI in assay [1] was above 88.4 µM; in [2], 25.4 µM; in assay [3], 12.2 µM; in [4], 33.6 µM; in assay [5], 33.5 µM; in assay [6], 46.6 µM. Also, the TGI in assay [7] was 27.4 µM; in assay [8], 33.6 µM; in assay [9], above 79.6 µM; in assay [10] it was above 63.8 µM; in assay [11], 31.7 µM; in assay [12], 43 µM. Moreover, the TGI in assay [13] was 32.9 µM; in [14], above 74.3 µM; in [15], 37.9 µM.
Take `Cc1cc(=Nc2ccc3c(c2)c(N)cc(C)[n+]3C)nc(N)n1C`: the TGI in assay [1], in assay [2], in [3], in [4], in assay [5] and in assay [6] was above 100 µM throughout. In addition, the TGI in assay [7], in assay [8], in assay [9], in assay [10], in [11] and in assay [12] was above 100 µM in each case. Further, the TGI in assay [13], in [14] and in [15] was above 100 µM in each case.
In the case of `CCOC(=O)c1nc2cc(C(F)(F)F)ccc2nc1Nc1ccc(Cl)c(Cl)c1`, the TGI was above 100 µM in assay [1]; above 100 µM in assay [2]; 94.1 µM in assay [3]; above 100 µM in assay [4]; above 100 µM in [5]; above 100 µM in [6]. Besides, the TGI in [7], in assay [8], in [9], in assay [10], in [11] and in [12] was above 100 µM in each case. For the same compound, the TGI in assay [13], in [14] and in assay [15] was above 100 µM in each case.
`COc1cc2c(cc1OC)CCN=C2`: the TGI in [2], in assay [3], in assay [4], in assay [5], in [6] and in assay [7] was above 100 µM in each case. For the same compound, the TGI in assay [8], in assay [9], in assay [10], in assay [11], in [12] and in assay [13] was above 100 µM each time. Further, the TGI in assay [14] and in assay [15] was above 100 µM throughout.
With `C#CCOC(=O)c1ccccc1OC(C)=O`, the TGI in assay [2], in [3], in [4], in assay [5], in [6] and in [8] was above 100 µM in each case. For the same compound, the TGI in assay [9], in assay [10], in assay [11], in [12], in assay [13] and in [14] was above 100 µM throughout. Also, the TGI in assay [15] is above 100 µM.
In the case of `NC(CCCCNc1ccn(C2OC(CO)C(O)C2O)c(=O)n1)C(=O)O` (centres undefined), the TGI in [1], in assay [2], in [3], in assay [4], in assay [5] and in assay [7] was above 100 µM throughout. The TGI in [8], in assay [9], in assay [10], in assay [11], in [12] and in [13] was above 100 µM each time. Further, the TGI in assay [14] and in [15] was above 100 µM each time.
